Data from patent publication US9181195B2, “Sigma receptor inhibitors” (Laboratorios Del Dr. Esteve, S.A., priority 2010, dated 2015).
Structures can show the parent of a compound that is named as a salt.

biological target: T1, σ1-receptor (Cavia porcellus, UniProt Q60492); experiment: σ1-receptor binding assay, [3H](+)-pentazocine, guinea pig brain membranes; conditions: [3H](+)-pentazocine 0.5 nM, non-specific binding 1 μM haloperidol, 37° C., 150 min
T1 construct: guinea pig brains were homogenized; from tissue; host or cells: guinea pig brain membranes
Experimental: Some representative compounds of the invention were tested for their activity as sigma (sigma-1) inhibitors. The following protocol was followed:
Brain membrane preparation and binding assays for the σ1-receptor were performed as described (DeHaven-Hudkins et al., 1992) with some modifications. In brief, guinea pig brains were homogenized in 10 vols. (w/v) of Tris-HCl 50 mM 0.32 M sucrose, pH 7.4, with a Kinematica Polytron PT 3000 at 15000 r.p.m. for 30 s. The homogenate was centrifuged at 1000 g for 10 min at 4° C. and the supernatants collected and centrifuged again at 48000 g for 15 min at 4° C. The pellet was resuspended in 10 volumes of Tris-HCl buffer (50 mM, pH 7.4), incubated at 37° C. for 30 min, and centrifuged at 48000 g for 20 min at 4° C. Following this, the pellet was resuspended in fresh Tris-HCl buffer (50 mM, pH 7.4) and stored on ice until use.
Each assay tube contained 10 μL of [^3H](+)-pentazocine (final concentration of 0.5 nM), 900 μL of the tissue suspension to a final assay volume of 1 mL and a final tissue concentration of approximately 30 mg tissue net weight/mL. Non-specific binding was defined by addition of a final concentration of 1 μM haloperidol. All tubes were incubated at 37° C. for 150 min before termination of the reaction by rapid filtration over Schleicher & Schuell GF 3362 glass fibre filters [previously soaked in a solution of 0.5% polyethylenimine for at least 1 h]. Filters were then washed with four times with 4 mL of cold Tris-HCl buffer (50 mM, pH 7.4). Following addition of scintillation cocktail, the samples were allowed to equilibrate overnight. The amount of bound radioactivity was determined by liquid scintillation spectrometry using a Wallac Winspectral 1414 liquid scintillation counter. Protein concentrations were determined by the method of Lowry et al, (1951).

T1 sequence (Q60492 whole entry): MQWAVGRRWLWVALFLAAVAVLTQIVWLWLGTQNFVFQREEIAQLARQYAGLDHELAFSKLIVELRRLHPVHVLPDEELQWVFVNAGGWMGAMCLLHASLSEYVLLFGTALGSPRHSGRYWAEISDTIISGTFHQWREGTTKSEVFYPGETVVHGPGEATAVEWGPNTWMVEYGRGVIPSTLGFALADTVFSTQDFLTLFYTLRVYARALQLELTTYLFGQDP

SMILES	Ki [nM]
Cc1cc(COCCN2CCOCC2)nn1C1CCCC1 [Compound 21, 4-(2-((1-cyclopentyl-5-methyl-1H-pyrazol-3-yl)methoxy)ethyl)-morpholine]	240
Cc1cc(CCOCCN2CCOCC2)nn1C1CCCCC1 [Compound 24, 4-(2-(2-(1-cyclohexyl-5-methyl-1H-pyrazol-3-yl)ethoxy)ethyl)-morpholine hydrochloride]	266
Cc1cc(CCCN2CCOCC2)nn1-c1ccc2ccccc2c1 [Compound 4, 4-{3-[5-Methyl-1-(2-naphthyl)-1H-pyrazol-3-yl]propyl}morpholine]	132
Cc1cc(COCCN2C[C@@H](C)N[C@@H](C)C2)nn1C1CCCCC1 [Compound 23, (3S,5R)-1-(2-((1-cyclohexyl-5-methyl-1H-pyrazol-3-yl)methoxy)ethyl)-3,5-dimethylpiperazine hydrochloride]	488
Cc1cc(COCCN2CCOCC2)nn1C1CCCCC1 [Compound 6, 4-(2-((1-cyclohexyl-5-methyl-1H-pyrazol-3-yl)methoxy)ethyl)-morpholine]	23.6
Cc1cc(CCCN2CCOCC2)nn1-c1cnc2ccccc2c1 [Compound 14, 4-(3-(5-methyl-1-(quinolin-3-yl)-1H-pyrazol-3-yl)propyl)morpholine]	281
Cc1cc(CCOCCN2CCOCC2)nn1-c1ccc(Cl)c(Cl)c1 [Compound 5, 4-(2-{2-[1-(3,4-dichlorophenyl)-5-methyl-1H-pyrazol-3-yl]ethoxy)ethyl}morpholine]	113
Cc1cc(CCCN2CCOCC2)nn1C1CCCCC1 [Compound 7, 4-(3-(1-cyclohexyl-5-methyl-1H-pyrazol-3-yl)propyl)morpholine]	53.3
Cc1cc(COCCN2CCOCC2)nn1-c1cnc2ccccc2c1 [Compound 12, 4-(2-((5-methyl-1-(quinolin-3-yl)-1H-pyrazol-3-yl)methoxy)ethyl)-morpholine]	771
c1ccc2ncc(-n3ccc(CCCN4CCOCC4)n3)cc2c1 [Compound 17, 4-(3-(1-(quinolin-3-yl)-1H-pyrazol-3-yl)propyl)morpholine]	154
Cc1c(COCCN2CCOCC2)nn(-c2ccc(Cl)c(Cl)c2)c1C [Compound 16, 4-(2-((1-(3,4-dichlorophenyl)-4,5-dimethyl-1H-pyrazol-3-yl)methoxy)ethyl)-morpholine]	22.9
CC(=O)N1CCN(CCOCc2cc(C)n(C3CCCCC3)n2)CC1 [Compound 22, 1-(4-(2-((1-cyclohexyl-5-methyl-1H-pyrazol-3-yl)methoxy)ethyl)-piperazin-1-yl)ethanone hydrochloride]	101
Cc1c(COCCN2CCOCC2)nn(C2CCCCC2)c1C [Compound 26, 4-(2-((1-cyclohexyl-4,5-dimethyl-1H-pyrazol-3-yl)methoxy)ethyl)-morpholine hydrochloride]	110
Cc1cc(COCCN2CCOCC2)nn1-c1ccc2ccccc2c1 [Compound 2, 4-(2-{[1-(2-naphthyl)-5-methyl-1H-pyrazol-3-yl]methoxy}ethyl)morpholine]	209

Stronger by Ki, values ahead:

Ki [nM]	SMILES
14.6	CC(=O)N1CCN(CCOCc2cc(C)n(-c3ccc(Cl)c(Cl)c3)n2)CC1 [Compound 10, 1-(4-(2-((1-(3,4-dichlorophenyl)-5-methyl-1H-pyrazol-3-yl)methoxy)ethyl)-piperazin-1-yl)-ethanone]
13.8	Cc1cc(COCCN2CCOCC2)nn1-c1ccc(Cl)c(Cl)c1 [Compound 1, 4-(2-{[1-(3,4-dichlorophenyl)-5-methyl-1H-pyrazol-3-yl]methoxy}ethyl)morpholine]
11.3	c1cn(C2CCCCC2)nc1COCCN1CCOCC1 [Compound 25, 4-(2-((1-cyclohexyl-1H-pyrazol-3-yl)methoxy)ethyl)-morpholine-hydrochloride]
8.62	Cc1cc(CCCCN2CCOCC2)nn1-c1ccc(Cl)c(Cl)c1 [Compound 13, 4-(4-(1-(3,4-dichlorophenyl)-5-methyl-1H-pyrazol-3-yl)butyl)morpholine]
6.8	Cc1cc(COCCCN2CCOCC2)nn1C1CCCCC1 [Compound 20, 4-(3-((1-cyclohexyl-5-methyl-1H-pyrazol-3-yl)methoxy)propyl)-morpholine]
6.28	Clc1ccc(-n2ccc(CCCCN3CCOCC3)n2)cc1Cl [Compound 18, 4-(4-(1-(3,4-dichlorophenyl)-1H-pyrazol-3-yl)butyl)morpholine]
6.12	Cc1cc(COCCN2CCCC2)nn1-c1ccc(Cl)c(Cl)c1 [Compound 8, 1-(3,4-dichlorophenyl)-5-methyl-3-((2-(pyrrolidin-1-yl)ethoxy)methyl)-1H-pyrazole]
4.74	Cc1cc(CCCN2CCOCC2)nn1-c1ccc(Cl)c(Cl)c1 [Compound 3, 4-{3-[1-(3,4-dichlorophenyl)-5-methyl-1H-pyrazol-3-yl]propyl}morpholine]
3.2	Cc1cc(COCCN2C[C@@H](C)O[C@@H](C)C2)nn1-c1ccc(Cl)c(Cl)c1 [Compound 11, (2S,6R)-4-(2-((1-(3,4-dichlorophenyl)-5-methyl-1H-pyrazol-3-yl)methoxy)ethyl)-2,6-dimethylmorpholine]
2.13	Clc1ccc(-n2ccc(COCCN3CCOCC3)n2)cc1Cl [Compound 15, 4-(2-((1-(3,4-dichlorophenyl)-1H-pyrazol-3-yl)methoxy)ethyl)-morpholine]
2.09	Cc1cc(COCCN2CCCCC2)nn1-c1ccc(Cl)c(Cl)c1 [Compound 9, 1-(2-((1-(3,4-dichlorophenyl)-5-methyl-1H-pyrazol-3-yl)methoxy)ethyl)-piperidine]
